From PubChem BioAssay (NCI)
“And” between values parts separate entries of the source, which are not always exact repeats. Equal entries are not always repeated.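 48-hour exposure; five concentrations; linearly interpolated endpoints. Abbreviation: GI50, concentration required for 50% inhibition of growth. TGI: concentration producing complete growth inhibition.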

What was measured:
Assay in all cases: NCI tumour cell line growth inhibition, 48 h
CCRF-CEM leukemia = test system: CCRF-CEM leukemia
SNB-19 CNS = test system: SNB-19 CNS
HOP-92 NSCLC = test system: HOP-92 NSCLC
RPMI-8226 leukemia = test system: RPMI-8226 leukemia
SF-295 CNS = test system: SF-295 CNS
MDA-MB-231 breast = test system: MDA-MB-231 breast
HL-60(TB) leukemia = test system: HL-60(TB) leukemia
PC-3 prostate = test system: PC-3 prostate
SR leukemia = test system: SR leukemia
SNB-78 CNS = test system: SNB-78 CNS
EKVX NSCLC = test system: EKVX NSCLC
MDA-MB-435 = test system: MDA-MB-435
XF 498 CNS = test system: XF 498 CNS
MDA-N = test system: MDA-N
KM20L2 colon = test system: KM20L2 colon
MCF7 breast = test system: MCF7 breast
SK-OV-3 ovarian = test system: SK-OV-3 ovarian
UACC-62 melanoma = test system: UACC-62 melanoma
SW-620 colon = test system: SW-620 colon
OVCAR-4 ovarian = test system: OVCAR-4 ovarian
UACC-257 melanoma = test system: UACC-257 melanoma
U251 CNS = test system: U251 CNS
DMS 114 small cell lung = test system: DMS 114 small cell lung
OVCAR-8 ovarian = test system: OVCAR-8 ovarian
RXF 393 renal = test system: RXF 393 renal
M19-MEL melanoma = test system: M19-MEL melanoma
NCI-H226 lung = test system: NCI-H226 lung
HOP-62 NSCLC = test system: HOP-62 NSCLC
RXF-631 renal = test system: RXF-631 renal
DMS 273 small cell lung = test system: DMS 273 small cell lung
MALME-3M melanoma = test system: MALME-3M melanoma
SK-MEL-2 melanoma = test system: SK-MEL-2 melanoma
A549 NSCLC = test system: A549 NSCLC
OVCAR-3 ovarian = test system: OVCAR-3 ovarian
786-0 renal = test system: 786-0 renal
HCT-15 colon = test system: HCT-15 colon
IGROV1 ovarian = test system: IGROV1 ovarian
HT29 colon = test system: HT29 colon
M14 melanoma = test system: M14 melanoma
CAKI-1 renal = test system: CAKI-1 renal
DU-145 prostate = test system: DU-145 prostate
A498 renal = test system: A498 renal
K-562 leukemia = test system: K-562 leukemia
NCI-H522 lung = test system: NCI-H522 lung
SF-539 CNS = test system: SF-539 CNS
LXFL 529 NSCLC = test system: LXFL 529 NSCLC
HCT-116 colon = test system: HCT-116 colon
OVCAR-5 ovarian = test system: OVCAR-5 ovarian
TK-10 renal = test system: TK-10 renal
NCI-H460 lung = test system: NCI-H460 lung
SK-MEL-5 melanoma = test system: SK-MEL-5 melanoma
COLO 205 colon = test system: COLO 205 colon
ACHN renal = test system: ACHN renal
SNB-75 CNS = test system: SNB-75 CNS
HOP-18 NSCLC = test system: HOP-18 NSCLC
KM12 colon = test system: KM12 colon
UO-31 renal = test system: UO-31 renal
SK-MEL-28 melanoma = test system: SK-MEL-28 melanoma
T-47D breast = test system: T-47D breast
MOLT-4 leukemia = test system: MOLT-4 leukemia
NCI-H23 lung = test system: NCI-H23 lung
HCC-2998 colon = test system: HCC-2998 colon
BT-549 breast = test system: BT-549 breast
SN12C renal = test system: SN12C renal
LOX IMVI melanoma = test system: LOX IMVI melanoma
DLD-1 colon = test system: DLD-1 colon
SF-268 CNS = test system: SF-268 CNS

CCCC/C=C1\CCC(CN2CCOCC2)C1=O (stereo unspecified)
TGI (CCRF-CEM leukemia): 3.35 µM | TGI (SNB-19 CNS): 29.6 µM | TGI (HOP-92 NSCLC): 3.72 µM | TGI (RPMI-8226 leukemia): 2.59 µM | TGI (SF-295 CNS): 29.8 µM | TGI (MDA-MB-231 breast): 14.5 µM | GI50 (HL-60(TB) leukemia): 0.566 µM | TGI (HL-60(TB) leukemia): 5.61 µM | TGI (PC-3 prostate): 26.2 µM | TGI (SR leukemia): 5.23 µM | TGI (SNB-78 CNS): 32.3 µM | TGI (EKVX NSCLC): 28.3 µM | TGI (MDA-MB-435): 23 µM | TGI (XF 498 CNS): 3.15 µM | TGI (MDA-N): 22.7 µM | TGI (KM20L2 colon): 11.4 µM | TGI (MCF7 breast): 4.93 µM | TGI (SK-OV-3 ovarian): 31 µM | TGI (UACC-62 melanoma): 16 µM | TGI (SW-620 colon): 5.13 µM | TGI (OVCAR-4 ovarian): 36.1 µM | TGI (UACC-257 melanoma): 13.5 µM | TGI (U251 CNS): 8.35 µM | TGI (DMS 114 small cell lung): 15.8 µM | TGI (OVCAR-8 ovarian): 22.5 µM | TGI (RXF 393 renal): 2.89 µM | TGI (M19-MEL melanoma): 15.2 µM | TGI (NCI-H226 lung): 24.2 µM | TGI (HOP-62 NSCLC): 30.2 µM | TGI (RXF-631 renal): 29.2 µM | TGI (DMS 273 small cell lung): 17.6 µM | TGI (MALME-3M melanoma): 4.95 µM | TGI (SK-MEL-2 melanoma): 23.8 µM | TGI (A549 NSCLC): 46.2 µM | TGI (OVCAR-3 ovarian): 19.3 µM | TGI (786-0 renal): 4.25 µM | GI50 (HCT-15 colon): 3.05 µM | TGI (HCT-15 colon): 9.3 µM | TGI (IGROV1 ovarian): 29.2 µM | TGI (HT29 colon): 12.1 µM | TGI (M14 melanoma): 10.3 µM | TGI (CAKI-1 renal): 3.74 µM | TGI (DU-145 prostate): 32.8 µM | TGI (A498 renal): 27.4 µM | TGI (K-562 leukemia): 5.82 µM | TGI (NCI-H522 lung): 2.17 µM | TGI (SF-539 CNS): 17.5 µM | TGI (LXFL 529 NSCLC): 2.74 µM | TGI (HCT-116 colon): 5.55 µM | TGI (OVCAR-5 ovarian): 32.9 µM | TGI (TK-10 renal): 19.5 µM | TGI (NCI-H460 lung): 38.2 µM | TGI (SK-MEL-5 melanoma): 26.9 µM | TGI (COLO 205 colon): 9.49 µM | TGI (ACHN renal): 8.23 µM | TGI (SNB-75 CNS): 20.7 µM | TGI (HOP-18 NSCLC): 2.05 µM | TGI (KM12 colon): 7.38 µM | TGI (UO-31 renal): 11.6 µM | TGI (SK-MEL-28 melanoma): 7.97 µM | TGI (T-47D breast): 31.3 µM | TGI (MOLT-4 leukemia): 10.7 µM | TGI (NCI-H23 lung): 12.2 µM | TGI (HCC-2998 colon): 22.1 µM | TGI (BT-549 breast): 9.47 µM | TGI (SN12C renal): 10.7 µM | TGI (LOX IMVI melanoma): 3.14 µM | TGI (DLD-1 colon): 3.13 µM | TGI (SF-268 CNS): 36.3 µM

COc1cc(C(C)c2cc3c(cc2OCCOCCOc2cc4c(cc2C(C)c2cc(OC)c(OC)c(OC)c2)OCO4)OCO3)cc(OC)c1OC (stereo unspecified)
GI50 (CCRF-CEM leukemia): > 100 µM | TGI (CCRF-CEM leukemia): > 100 µM | GI50 (SNB-19 CNS): > 100 µM | TGI (SNB-19 CNS): > 100 µM | TGI (HOP-92 NSCLC): > 100 µM | TGI (RPMI-8226 leukemia): > 100 µM | GI50 (SF-295 CNS): > 10 µM | TGI (SF-295 CNS): > 100 µM | GI50 (HL-60(TB) leukemia): > 100 µM | TGI (HL-60(TB) leukemia): > 100 µM | TGI (SR leukemia): > 10 µM | TGI (SNB-78 CNS): > 10 µM | GI50 (EKVX NSCLC): > 100 µM | TGI (EKVX NSCLC): > 100 µM | TGI (XF 498 CNS): > 10 µM | GI50 (KM20L2 colon): > 100 µM | TGI (KM20L2 colon): > 100 µM | GI50 (SK-OV-3 ovarian): > 100 µM | TGI (SK-OV-3 ovarian): > 100 µM | GI50 (UACC-62 melanoma): > 100 µM | TGI (UACC-62 melanoma): > 100 µM | GI50 (SW-620 colon): > 100 µM | TGI (SW-620 colon): > 100 µM | GI50 (OVCAR-4 ovarian): > 100 µM | TGI (OVCAR-4 ovarian): > 100 µM | TGI (UACC-257 melanoma): > 10 µM | GI50 (U251 CNS): > 100 µM | TGI (U251 CNS): > 100 µM | GI50 (DMS 114 small cell lung): > 100 µM | TGI (DMS 114 small cell lung): > 100 µM | GI50 (OVCAR-8 ovarian): > 100 µM | TGI (OVCAR-8 ovarian): > 100 µM | GI50 (RXF 393 renal): > 100 µM | TGI (RXF 393 renal): > 100 µM | GI50 (M19-MEL melanoma): > 100 µM | TGI (M19-MEL melanoma): > 100 µM | TGI (NCI-H226 lung): > 10 µM | GI50 (HOP-62 NSCLC): > 100 µM | TGI (HOP-62 NSCLC): > 100 µM | GI50 (RXF-631 renal): > 100 µM | TGI (RXF-631 renal): > 100 µM | TGI (DMS 273 small cell lung): > 10 µM | GI50 (MALME-3M melanoma): > 100 µM | TGI (MALME-3M melanoma): > 100 µM | GI50 (SK-MEL-2 melanoma): > 100 µM | TGI (SK-MEL-2 melanoma): > 100 µM | GI50 (A549 NSCLC): > 100 µM | TGI (A549 NSCLC): > 100 µM | TGI (OVCAR-3 ovarian): > 10 µM | GI50 (786-0 renal): > 100 µM | TGI (786-0 renal): > 100 µM | TGI (HCT-15 colon): > 10 µM | GI50 (IGROV1 ovarian): > 100 µM | TGI (IGROV1 ovarian): > 100 µM | GI50 (HT29 colon): > 100 µM | TGI (HT29 colon): > 100 µM | GI50 (M14 melanoma): > 100 µM | TGI (M14 melanoma): > 100 µM | GI50 (CAKI-1 renal): > 100 µM | TGI (CAKI-1 renal): > 100 µM | GI50 (A498 renal): > 100 µM | TGI (A498 renal): > 100 µM | GI50 (K-562 leukemia): > 10 µM | TGI (K-562 leukemia): > 100 µM | GI50 (NCI-H522 lung): > 100 µM | TGI (NCI-H522 lung): > 100 µM | GI50 (SF-539 CNS): > 100 µM | TGI (SF-539 CNS): > 100 µM | GI50 (LXFL 529 NSCLC): > 100 µM | TGI (LXFL 529 NSCLC): > 100 µM | GI50 (HCT-116 colon): > 100 µM | TGI (HCT-116 colon): > 100 µM | GI50 (OVCAR-5 ovarian): > 100 µM | TGI (OVCAR-5 ovarian): > 100 µM | GI50 (TK-10 renal): > 100 µM | TGI (TK-10 renal): > 100 µM | GI50 (NCI-H460 lung): > 100 µM | TGI (NCI-H460 lung): > 100 µM | GI50 (SK-MEL-5 melanoma): > 10 µM | TGI (SK-MEL-5 melanoma): > 100 µM | GI50 (COLO 205 colon): > 100 µM | TGI (COLO 205 colon): > 100 µM | GI50 (ACHN renal): > 100 µM | TGI (ACHN renal): > 100 µM | GI50 (SNB-75 CNS): > 10 µM | TGI (SNB-75 CNS): > 10 µM and 74.8 µM | TGI (HOP-18 NSCLC): > 10 µM | GI50 (KM12 colon): > 100 µM | TGI (KM12 colon): > 100 µM | GI50 (UO-31 renal): > 10 µM | TGI (UO-31 renal): > 100 µM | GI50 (SK-MEL-28 melanoma): > 100 µM | TGI (SK-MEL-28 melanoma): > 100 µM | GI50 (MOLT-4 leukemia): > 100 µM | TGI (MOLT-4 leukemia): > 100 µM | GI50 (NCI-H23 lung): > 100 µM | TGI (NCI-H23 lung): > 100 µM | GI50 (HCC-2998 colon): > 100 µM | TGI (HCC-2998 colon): > 100 µM | GI50 (SN12C renal): > 100 µM | TGI (SN12C renal): > 100 µM | GI50 (LOX IMVI melanoma): > 100 µM | TGI (LOX IMVI melanoma): > 100 µM | GI50 (DLD-1 colon): > 100 µM | TGI (DLD-1 colon): > 100 µM | GI50 (SF-268 CNS): > 100 µM | TGI (SF-268 CNS): > 100 µM
